Results as given in PMC10967270, “Intrapulmonary and Systemic Pharmacokinetics of Colistin Following Nebulization of Low-Dose Colistimethate Sodium in Patients with Ventilator-Associated Pneumonia Caused by Carbapenem-Resistant Acinetobacter baumannii” (Antibiotics, 2024).
Positions of bridges follow the written chain, without caps; N, C: chain ends. Non-standard residues stand in square brackets, D forms with d. Residues, ends and D or L forms follow the SMILES beside them. *: point of attachment. X1 = CC[C@H](C)CCCCC(=O)*; Dab = NCC[C@H](N)C(=O)O

Test: Colistin concentration in epithelial lining fluid (BALF, urea-corrected) after CMS nebulization
Format: in vivo, human
Description: Patients were treated with CMS (Xellia Pharmaceuticals ApS, Copenhagen, Denmark) at a total of 3.75 MIU (equivalent to 300 mg of CMS or 112.5 mg of CBA) administered four times a day at 6 h intervals. CMS was dissolved in 5 mL of normal saline and administered over 30 min through a jet nebulizer (Sileo 54, Macjin Medical, Seoul, Republic of Korea) connected to the ventilator circuit. Bronchoalveolar lavage fluid (BALF) was obtained by instilling 20 mL of normal saline into the right middle lobe or left lingular segmental bronchus using a bronchoscope, followed by immediate aspiration and collection into a syringe. Samples were collected immediately before the nebulization treatment and at 1, 3, and 5 h after the start of the treatment. Blood samples were collected before the nebulization treatment and at 1, 2, 3, and 5 h thereafter. Both BALF and blood samples were centrifuged at 3000× g for 10 min within 1 h of collection and the supernatant was isolated. Samples were then stored in a refrigerator at a temperature below −70 °C.
A validated liquid chromatography–tandem mass spectrometry assay was used to determine colistin concentrations in BALF and plasma samples. The HPLC equipment consisted of an Agilent 1200 series modular system and an Atlantis C18 column (Company, Waters, Milford, MA, USA) (2.1 mm × 150 mm, 3.0 μm). Mobile phases A and B were water and acetonitrile, respectively. Both phases contained 0.1% formic acid. A gradient elution program was started at 10% B, increased to 35% for 1 min, maintained at this composition for 3.8 min, and returned to the initial composition for 5 min to re-equilibrate the column. Mass spectrometry (MS) was performed using a triple-quadruple mass spectrometer (SCIEX QTRAP5500, Applied Biosystems, Foster City, CA, USA) with an electrospray ionization (ESI) interface. The ESI source was set to positive ionization mode. The parent to product transition (m/z) was 578.483→101.071 for colistin A, 585.453→101.071 for colistin B, and 602.527→101.000 for polymyxin B. Data acquisition and processing were performed using the Analyst software (version 1.7.1; Applied Biosystems, Foster City, CA, USA). Stock solutions of colistin and IS were prepared in deionized water at concentrations of 10 mg/mL, and both were stored at −20 °C. Working solutions of colistin were prepared in deionized water (dilutions of 2, 5, 10, 50, 100, 500, and 1000 μg/mL). Calibration standards were prepared by spiking 247.5 μL of drug-free plasma with 2.5 μL of colistin working solution. Low (colistin A; 11.16 ng/mL, colistin B; 48.84 ng/mL), moderate (colistin A; 186 ng/mL, colistin B; 814 ng/mL), and high (colistin A; 1488 ng/mL, colistin B; 6512 ng/mL) concentrations of QC samples were prepared. Sample pretreatment involved a solid phase extraction. A 250 μL aliquot of plasma was pipetted into a 1.5 mL Eppendorf tube, to which 10 μL of IS (10 μg/mL, polymyxin B) and 740 μL of deionized water were added. This mixture was loaded into a cartridge that had been preconditioned twice with 1 mL of methanol and 1 mL of deionized water. After the plasma mixture was loaded, the cartridge was washed with 1 mL of deionized water. One milliliter of methanol including 0.1% formic acid was used for extraction. Extraction liquid was evaporated by vacuum concentrator (Speedvac, Thermo Fisher Scientific Inc., Waltham, MA, USA) at 45 °C for 2.5 h. Samples were reconstituted in 100 μL deionized water containing 0.1% formic acid. Subsequently, samples were vortexed for 5 min and centrifuged at 13,200 rpm for 10 min, and […] of supernatant was injected into the LC-MS system.
Colistin concentrations, encompassing both colistin A and colistin B, were determined and collectively referred to as “colistin”. The concentration of colistin in the epithelial lining fluid (ELF), termed CELF, was calculated using the formula CELF = CBAL (Ureaplasma/UreaBAL), where CBAL is the colistin concentration measured in BALF. […]

What does the source list for `CC[C@H](C)CCCCC(=O)N[C@@H](CCN)C(=O)N[C@H](C(=O)N[C@@H](CCN)C(=O)N[C@H]1CCNC(=O)[C@H]([C@@H](C)O)NC(=O)[C@H](CCN)NC(=O)[C@H](CCN)NC(=O)[C@H](CC(C)C)NC(=O)[C@@H](CC(C)C)NC(=O)[C@H](CCN)NC1=O)[C@@H](C)O` [colistin] (X1-[Dab]T[Dab][Dab][Dab][dL]L[Dab][Dab]T; lactam 4-C)?
level at 1 h (human, epithelial lining fluid, inhaled or intranasal, 1 h after start (time by position in Figure 1a), CMS 0.9375 MIU nebulized over 30 min, LC-MS/MS, 20 patients, read-out: Median colistin concentration in ELF): 11800 ng/mL; level at 3 h (human, epithelial lining fluid, inhaled or intranasal, 3 h after start (time by position in Figure 1a), CMS 0.9375 MIU nebulized over 30 min, LC-MS/MS, 20 patients, read-out: Median colistin concentration in ELF): 15400 ng/mL; level at 5 h (human, epithelial lining fluid, inhaled or intranasal, 5 h after start (time by position in Figure 1a), CMS 0.9375 MIU nebulized over 30 min, LC-MS/MS, 20 patients, read-out: Median colistin concentration in ELF): 8160 ng/mL; Kp at 1 h (human, epithelial lining fluid, inhaled or intranasal, at 1 h, median concentrations, nebulized CMS 0.9375 MIU, read-out: Colistin concentration in ELF relative to plasma): ~614; Kp at 3 h (human, epithelial lining fluid, inhaled or intranasal, at 3 h, median concentrations, nebulized CMS 0.9375 MIU, read-out: Colistin concentration in ELF relative to plasma): ~408; Kp at 5 h (human, epithelial lining fluid, inhaled or intranasal, at 5 h, median concentrations, nebulized CMS 0.9375 MIU, read-out: Colistin concentration in ELF relative to plasma): ~250; Observed peak colistin concentration in ELF, median (IQR) (nebulized CMS 0.9375 MIU over 30 min, monitored over 5 h, 20 patients): 21,950 (10,440–28,389) μg/L
